This note sets out measurements from the supplement of paper PMC5412046.

Structures can show the parent of a compound that is named as a salt.

The assay concerns SB.msgc-1. Kind of assay: AC50 for growth inhibition (viability) (log10 M); higher = less potent. Conditions: SB.msgc-1 (sporadic gastric cancer). The procedure, abridged: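 Compound dissolved in DMSO was transferred by pintool, 23 nL per 1536 well, onto 500 hereditary or sporadic patient-derived gastric cancer cells in 5 μL medium. The series spanned 11 threefold dilutions, the highest at a final 46 μM. At 48 h, a 30 min room-temperature incubation with CellTiter-Glo preceded luminescence measurement on a ViewLux. The log half-maximal activity concentration was fitted by a four-parameter model to DMSO-normalised viability, with only high-quality curve classes accepted.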
Turning to `CN(C)C1=C(Br)C=C(C=C1)C\2NC3=C(\C4=C2C(=O)CC(C)(C)C4)C5=CC=CC=C5C=C3` (stereo not given) [GLS968], the “AC50 for growth inhibition (log10 M)” value was -5.23.

Take `C[C@@H]1CC[C@H]2[C@@H](C)C(=O)O[C@@H]3O[C@@]4(C)CC[C@@H]1[C@]32OO4` [Artemisinin]: the “AC50 for growth inhibition (log10 M)” value was -6.93.

Consider `CN(c1nccc(=O)[nH]1)C1CCN(c2nc3ccccc3n2Cc2ccc(F)cc2)CC1` [Mizolastine], for which the “AC50 for growth inhibition (log10 M)” value was -4.53.

Take `CC(C)(C)C1=NC2=C([NH]1)C3=CC=C(F)C=C3C4=C2\C=C/NC4=O` [Merck 5]: the “AC50 for growth inhibition (log10 M)” value is -5.33.

For `CCNC(=O)Nc1ccc(Oc2ncnc(N)c2/C=N/OC)cc1Cl`, the “AC50 for growth inhibition (log10 M)” value was -4.88.

Take `CC(N[C@H]1CCCC[C@@H]1NC(=O)c1ccc(Cl)cc1)c1cccc2ccccc12` (stereo not given in full) [Calhex 231]: the “AC50 for growth inhibition (log10 M)” value is -5.93.

On to `CN1CCCN(C(=O)c2cccc(-c3ccc(/C=C4/C(=O)Nc5ccc(Cl)cc54)o3)c2)CC1` [CX-6258], for which the “AC50 for growth inhibition (log10 M)” value was -4.73.

On to `Cl.Cl.Fc1ccc(C(OCCN2CCN(CCCc3ccccc3)CC2)c2ccc(F)cc2)cc1` [Vanoxeamine], for which the “AC50 for growth inhibition (log10 M)” value is -4.73.

For `O=C1NC(=O)/C(=C/c2cccc(C(F)(F)F)c2)S1` [SMI-4a], the “AC50 for growth inhibition (log10 M)” value is -4.83.

Turning to `OC(=O)C1=CC=C(NC2=NC3=C(C\N=C(/C4=CC(=CC=C34)Cl)C5=C(F)C=CC=C5F)C=N2)C=C1` [MLN-8054], the “AC50 for growth inhibition (log10 M)” value is -4.78.

Turning to `C=CCn1c(=O)c2cnc(Nc3ccc(N4CCN(C)CC4)cc3)nc2n1-c1cccc(C(C)(C)O)n1` [MK-1775], the “AC50 for growth inhibition (log10 M)” value was -6.43.

As to `NC12CC3CC(CC(C3)C1)C2` [Amantadine hydrochloride], the “AC50 for growth inhibition (log10 M)” value is -4.68.

Regarding `CN(C)C(=O)C(CCN1CCC(O)(c2ccc(Cl)cc2)CC1)(c1ccccc1)c1ccccc1` [Loperamide hydrochloride], the “AC50 for growth inhibition (log10 M)” value is -4.78.

As for `CC(C)C1=N[N](C\2=C1C(=O)N\C(=N2)CC3=CC=C(OCCO)C=C3)C4=C(Cl)C=CC=C4Cl`, the “AC50 for growth inhibition (log10 M)” value was -6.88.

For the compound `CCc1nc(-c2cccc(C)c2)c(-c2ccnc(NC(=O)c3ccccc3)c2)s1` [TAK-715], the “AC50 for growth inhibition (log10 M)” value is -4.78.

For the compound `NC(=O)c1noc([C@H](CCCC2CCCCC2)CC(=O)NO)n1`, the “AC50 for growth inhibition (log10 M)” value is -4.93.

As for `C[C@@H](Oc1cc(-n2cnc3ccc(CN4CCN(C)CC4)cc32)sc1C(N)=O)c1ccccc1C(F)(F)F`, the “AC50 for growth inhibition (log10 M)” value was -7.13.

As for `Nc1ccccc1NC(=O)c1ccc(CNc2nccc(-c3cccnc3)n2)cc1` [Mocetinostat], the “AC50 for growth inhibition (log10 M)” value is -5.93.

On to `CCOC(=O)c1c(CSc2ccccc2)n(C)c2cc(Br)c(O)c(CN(C)C)c12` [Arbidol], for which the “AC50 for growth inhibition (log10 M)” value is -4.63.

Take `CCCCCCCCCCCCCCCC(=O)O[C@@H]1[C@@H](O)[C@@H](O)[C@@H]([C@H](NC(=O)[C@@H]2C[C@@H](CCC)CN2C)[C@H](C)Cl)O[C@@H]1SC.Cl` [Clindamycin palmitate]: the “AC50 for growth inhibition (log10 M)” value is -4.78.

Regarding `Cc1ccc(Nc2cc(-c3cccc(N4C(=O)c5ccccc5C4=O)c3)ncn2)cc1N[S+](C)(=O)[O-]` [CDK9 inhibitor], the “AC50 for growth inhibition (log10 M)” value was -4.63.

As to `Oc1ccc(C2CCN(c3ccnc4ccccc34)CC2)cc1O`, the “AC50 for growth inhibition (log10 M)” value is -4.63.

Regarding `N[S+](=O)([O-])OC[C@@H]1C[C@@H](n2ccc3c(N[C@H]4CCc5ccccc54)ncnc32)C[C@@H]1O` [MLN-4924], the “AC50 for growth inhibition (log10 M)” value is -5.48.

On to `O=C1CCc2ccc(OCCCCN3CCN(c4cccc(Cl)c4Cl)CC3)cc2N1` [Aripiprazole], for which the “AC50 for growth inhibition (log10 M)” value was -4.73.

As for `CN(C)Cc1ccc(-c2nc3cccc4c3n2CCNC4=O)cc1`, the “AC50 for growth inhibition (log10 M)” value is -4.78.

`C[C@@H]1[C@H]\2[C@H](O)[C@H]3[C@H](N(C)C)\C(=C(C(N)=O)/C(=O)[C@@]3(O)\C(=C2C(=O)C4=C(O)C=CC=C14)O)O` [Doxycycline]: the “AC50 for growth inhibition (log10 M)” value was -4.68.

Turning to `O=C(NOC[C@H](O)CO)c1ccc(F)c(F)c1Nc1ccc(I)cc1F`, the “AC50 for growth inhibition (log10 M)” value was -6.33.

With `N#Cc1ccc(Oc2ccc3c(c2)COB3O)cc1` [AN2728], the “AC50 for growth inhibition (log10 M)” value was -4.73.

Consider `COC1=CC=C2[C@H]3CC[C@]4(C)[C@H](CC[C@H]4[C@@H]3CCC2=C1)NCCCCCCN5C(=O)\C=C/C5=O`, for which the “AC50 for growth inhibition (log10 M)” value is -4.73.

Consider `C[C@@H]1CCO[C@H]2CN\3/C=C(/C(=O)NCC4=C(F)C=C(F)C=C4)C(=O)\C(=C3C(=O)N12)O` [Dolutegravir], for which the “AC50 for growth inhibition (log10 M)” value is -4.78.

With `CCCCCNC(=N)N/N=C/c1c[nH]c2ccc(OC)cc12` [Tegaserod maleate], the “AC50 for growth inhibition (log10 M)” value was -5.13.

Regarding `C/C(=N\NC(=S)N1CCC1)c1ccccn1`, the “AC50 for growth inhibition (log10 M)” value is -5.73.

With `O=C1NCCc2[nH]c(-c3ccncc3)cc21`, the “AC50 for growth inhibition (log10 M)” value was -5.63.

As for `CN1CCN(c2ccc([N+](=O)[O-])c3no[n+]([O-])c23)CC1`, the “AC50 for growth inhibition (log10 M)” value was -4.63.

For `CC1COC2=C3N1\C=C(C(O)=O)/C(=O)C3=CC(=C2N4CCN(C)CC4)F` (stereo not given) [Ofloxacin], the “AC50 for growth inhibition (log10 M)” value is -4.73.

With `Cc1cccc(-c2nn(C(=S)Nc3ccccc3)cc2-c2ccnc3ccccc23)n1` [A 83-01], the “AC50 for growth inhibition (log10 M)” value was -4.73.

For the compound `CNC(=O)N1\N=C(\C2=CC=C(N)C=C2)C3=CC4=C(OCO4)C=C3CC1C` (stereo not given), the “AC50 for growth inhibition (log10 M)” value is -5.08.

`CC(C)CC(=O)Nc1n[nH]c2c1CN(C(=O)C1CCN(C)CC1)C2(C)C`: the “AC50 for growth inhibition (log10 M)” value was -5.83.

On to `O=C(C1CC1)N1CC[C@@H](Cn2c(-c3ccc(-c4ccc5occc5c4)cc3)nc3cnccc32)C1`, for which the “AC50 for growth inhibition (log10 M)” value was -4.73.

Take `CN(CCOc1ccc(CC2SC(=O)NC2=O)cc1)c1ccccn1` (stereo not given) [Rosiglitazone]: the “AC50 for growth inhibition (log10 M)” value is -5.18.

Regarding `CCOc1ccc(Nc2nc(-c3c(C)nc4ccccn34)cs2)cc1` [JK 184], the “AC50 for growth inhibition (log10 M)” value was -6.43.

`O=C1Nc2ccccc2/C1=C1\Nc2ccccc2C1=O` [Indirubin]: the “AC50 for growth inhibition (log10 M)” value is -5.18.

`COc1cc(Nc2ncc(F)c(Nc3ccc4c(n3)NC(=O)C(C)(C)O4)n2)cc(OC)c1OC` [R406]: the “AC50 for growth inhibition (log10 M)” value is -4.63.

Regarding `Cn1cc(/C=C/C(=O)c2cccc(F)c2)cc1/C=C/C(=O)NO` [MC-1568], the “AC50 for growth inhibition (log10 M)” value is -4.88.

In the case of `CNC(=O)c1cc(COc2nnc(Nc3ccc(Cl)cc3)c3ccoc23)ccn1` [Telatinib], the “AC50 for growth inhibition (log10 M)” value is -4.78.

Take `CC1(C)Cc2c(sc(NC(=S)NC(=O)c3ccccc3)c2C(=O)O)CO1`: the “AC50 for growth inhibition (log10 M)” value is -4.53.

Regarding `CCOC(=O)C(C)OC1=CC=CC2=C1\C=C/N(CC(=O)NC3=CC=C4OCCOC4=C3)C2=O` (stereo not given), the “AC50 for growth inhibition (log10 M)” value is -5.18.

Regarding `Cc1cnc(C(=O)NCCc2ccc([S+](=O)([O-])NC(=O)NC3CCCCC3)cc2)cn1` [Glipizide], the “AC50 for growth inhibition (log10 M)” value was -4.78.

As for `Cc1cc(/C=c2/sc3nc4ccccc4n3c2=O)c(C)n1-c1ccccc1` [ITX3], the “AC50 for growth inhibition (log10 M)” value was -4.88.

As for `COc1cc(N2CCC(N3CCN(C)CC3)CC2)ccc1Nc1ncnc(Nc2ccccc2[S+](=O)([O-])C(C)C)n1` [ASP-3026], the “AC50 for growth inhibition (log10 M)” value was -4.88.

Turning to `CC(=O)Nc1nc(C)c(-c2ccc(Cl)c([S+](=O)([O-])NCCO)c2)s1` [PIK-93], the “AC50 for growth inhibition (log10 M)” value is -5.83.

`CC(C)c1noc(N2CCC(COc3ccc(-c4ccc([S+](C)(=O)[O-])cc4)nc3)CC2)n1`: the “AC50 for growth inhibition (log10 M)” value was -5.23.

As for `CCCCCNC(=O)N1CCC(CN(Cc2ccc(Cl)cc2)Cc2ccc([N+](=O)[O-])s2)C1` (stereo not given) [SR9011], the “AC50 for growth inhibition (log10 M)” value was -4.73.

On to `CCCCCN(CCC12CC3CC(CC(C3)C1)C2)C(=O)NCCCc1ccncc1` [DE-096], for which the “AC50 for growth inhibition (log10 M)” value is -4.73.

Regarding `Cn1c(Nc2ccc(C(F)(F)F)cc2)nc2cc(Oc3ccnc(-c4nc(C(F)(F)F)c[nH]4)c3)ccc21` [CHIR-265], the “AC50 for growth inhibition (log10 M)” value is -6.68.

As to `Cc1ccccc1C(C(=O)NC1CCCC1)N(C(=O)Cn1cnc2ccccc21)c1cccc(F)c1` (stereo not given), the “AC50 for growth inhibition (log10 M)” value is -4.63.

For `COc1cc2c(Nc3ccc(NC(=O)c4ccccc4)cc3)ncnc2cc1OCCCN1CCOCC1`, the “AC50 for growth inhibition (log10 M)” value was -4.83.

Regarding `c1ccc2c(Oc3nc(Nc4ccc(N5CCOCC5)cc4)c4ncn(C5CCCCC5)c4n3)cccc2c1` [purmorphamine], the “AC50 for growth inhibition (log10 M)” value is -4.98.

Regarding `COCC1(CO)C(=O)C2CCN1CC2` (stereo not given) [APR-246], the “AC50 for growth inhibition (log10 M)” value was -4.88.

Consider `N\C1=N\C2=C(N=C[N]2COC(CO)CO)C(=O)N1` [Ganciclovir], for which the “AC50 for growth inhibition (log10 M)” value is -5.28.

In the case of `Cc1c(C)n(Cc2ccc(-c3ccccc3C(=O)O)cc2)c2ccc(C(=O)N[C@@H](C)c3ccc([N+](=O)[O-])cc3)cc12` [SR1664], the “AC50 for growth inhibition (log10 M)” value is -4.68.

On to `NC(=O)Nc1cc(-c2cccc(F)c2)sc1C(=O)N[C@H]1CCCNC1` [AZD-7762], for which the “AC50 for growth inhibition (log10 M)” value is -6.73.

As for `CC[S+](=O)([O-])c1cccc(-c2cc(C(=O)NC3CCN(C)CC3)c(C)c3[nH]c4ncc(C)cc4c23)c1` [TAK-901], the “AC50 for growth inhibition (log10 M)” value is -5.33.

Consider `CN1\C=N/C2=CC=C(NC3=CC(=CC=C3C)NC(=O)C4=CC(=CC=C4)C(C)(C)C#N)C=C2C1=O` [AZ-628], for which the “AC50 for growth inhibition (log10 M)” value is -5.23.

On to `Cc1cc2c(cc1C1(c3ccc(C(=O)O)cn3)CC1)C(C)(C)CCC2(C)C`, for which the “AC50 for growth inhibition (log10 M)” value was -4.73.
